Measurements from US20240124434A1, “ATF6 INHIBITORS AND USES THEREOF” (Altos Labs, Inc., priority 2018, published 2024).
Converted amounts (≈) assume the structure as drawn. Read-outs that look alike come from different tables or passages of the source.

Legend:
CYP3A4 = CYP3A4 (Homo sapiens (Human), UniProt P08684); assay: CYP inhibition in human liver microsomes
Method: (§1) CYP inhibition by test compounds in human liver microsomes (HLM) for seven major CYP450 isoforms CYP1A2, CYP2C9, CYP2D6, CYP2B6, CYP2C8, CYP2C19 and CYP3A4 were assessed. […] 50 μM phenacetin, 2 μM midazolam, 5 μM diclofenac, 50 μM mephenytoin, 80 μM bupropion, and 5 μM dextromethorphan were used as probe substrates of CYP1A2, CYP3A4, CYP2C9, CYP2C19, CYP2B6, and CYP2D6, respectively. The incubation times were 20 min for […], CYP2D6, CYP2C9, CYP2B6, and CYP2C8; 40 min for CYP2C19; and 10 min for CYP 3A4. Following incubations, the reactions were terminated with acetonitrile containing internal standard. The samples were centrifuged and the supernatants were analyzed for the formation of metabolites (1-hydroxymidazolam (CYP3A4), 4-hydroxydiclofenac (CYP2C9), 4-hydroxymephenytoin (CYP2C19) and dextrorphan (CYP2D6), hydroxybupropion (CYP2B6), acetaminophen (CYP1A2), desethylamodiaquine (CYP2C8)) by LC/MS/MS.

CYP2B6 = CYP2B6 (Homo sapiens (Human), UniProt P20813); assay: CYP inhibition in human liver microsomes
Method: as §1

CYP2C9 = CYP2C9 (Homo sapiens (Human), UniProt P11712); assay: CYP inhibition in human liver microsomes
Method: as §1

CYP2C19 = CYP2C19 (Homo sapiens (Human), UniProt P33261); assay: CYP inhibition in human liver microsomes
Method: as §1

CYP2D6 = CYP2D6 (Homo sapiens (Human), UniProt P10635); assay: CYP inhibition in human liver microsomes
Method: as §1

CYP1A2 = CYP1A2 (Homo sapiens (Human), UniProt P05177); assay: CYP inhibition in human liver microsomes
Method: as §1

[1] = In vitro microsomal stability, human liver microsomes; type: in vitro ADME; settings: for half-life at 1 μM / half-life at […], 1 µM: human, read-out: T1/2 @ hLM; for half-life at 1 μM / microsomal CLint at 1 μM / half-life at […], 1 µM / microsomal CLint at […], 1 µM: pH 7.4; for microsomal CLint at 1 μM / microsomal CLint at […], 1 µM: read-out: Clint @ hLM; for Rem. @ hLM (%): remaining fraction after 30 min, 1 mM NADPH
In short: (§2)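 1 μM compound was incubated at 37 °C with 0.5 mg/mL human, mouse or rat liver microsomes and 1 mM NADPH in 100 mM phosphate buffer pH 7.4. Reactions were stopped at 0, 5, 15 and 30 min with cold acetonitrile containing propranolol internal standard.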

[2] = In vitro microsomal stability, mouse liver microsomes; type: in vitro ADME; settings: for half-life at 1 μM / half-life at […], 1 µM: mouse, read-out: T1/2 @ mLM; for half-life at 1 μM / microsomal CLint at 1 μM / half-life at […], 1 µM / microsomal CLint at […], 1 µM: pH 7.4; for microsomal CLint at 1 μM / microsomal CLint at […], 1 µM: read-out: Clint @ mLM; for Rem. @ mLM (%): remaining fraction after 30 min, 1 mM NADPH
In short: as §2

[3] = In vitro microsomal stability, rat liver microsomes; type: in vitro ADME; settings: for microsomal CLint at 1 μM / microsomal CLint at […], 1 µM: read-out: Clint @ rLM; for Rem. @ rLM (%): remaining fraction after 30 min, 1 mM NADPH
In short: as §2

[4] = mouse, in vivo, po, 10 mg/kg; for AUCExtr [%] / F [%]: Balb/c
Method: (§3) Tested compounds were formulated at 1 mg/mL as a dosing solution for oral administration in vehicle A: 10% dimethylacetamide (DMAC), 20% propylene glycol, and 40% PEG-400 or vehicle B: 10% Kolliphor® EL and 10% ethanol (EtOH).
(§4) Animals were acclimated for a minimum period of 4 days upon arrival at the testing facility.
(§5) At the day of study, mice were weighed, identified by marking the tail with numbers using a non-toxic permanent marker, and designated into ten experimental groups (n=3 per group).
(§6) Non-dosed mice were used to collect samples of zero time points. […] Blood samples were centrifuged immediately at 9,000 g at 4° C. for 5 minutes and then plasmas were separated. Plasma samples were placed into individually labeled cryovials and stored in a −80° C. freezer until LC/MS/MS bioanalysis.
(§7) The bioanalysis of plasma samples was conducted with a QTRAP 4500 triple quadrupole mass spectrometer (Applied Biosystems SCIEX) in the positive ion mode and interfaced with an Ekspert Ultra LC100 UPLC System (Eksigent). Calibration standards (0.01 to 10 μM) and QCs (0.02, 0.2 and 2.0 μM) were prepared from naïve mouse plasma in parallel with mouse plasma study samples (60 μL) by precipitation with three volumes of ice cold internal standard solution (acetonitrile containing 20 μM of theophylline). The precipitated samples were centrifuged at 6,100 g for 30 min. Following centrifugation, an aliquot of each supernatant was transferred to an autosampler plate and diluted with two volumes of aqueous mobile phase (0.1% formic acid in water). Samples were injected onto a reverse phase analytical column (YMC Triart C18; 2.0×50 mm; 1.9 μm; YMC CO) and eluted with a gradient of 0.1% formic acid in Acetonitrile. Assayed test compound and internal standards were monitored by a multiple reaction monitoring (MRM) experiment using an Analyst software (v1.6.2, Applied Biosystems SCIEX). Quantitation was conducted using a MultiQuant software (v2.1, Applied Biosystems SCIEX) and the resulting calibration curve was fitted with a linear regression and 1/x weighting. The lower limits of quantitation were 1<LLQ <5 ng/mL.

ATF6 = assay: ERSE ATF6-luciferase reporter assay (thapsigargin-induced ER stress); type: cell-based, human; settings: for inhibition at 1 µM: read-out: Inh. ATF6-Luc @ 1 μM [%]
[5] = Kinetic solubility (nephelometry); type: physicochemical; settings: PBS pH 7.4, 1% DMSO, 1 hour at 37° C., light scattering at 625 nm
Method: Concentration (μM) was then calculated by segmental regression. Amiodarone (#A8423 Aldrich) was used as positive control.

in vivo = settings: Balb/c, mouse, po, 10 mg/kg
Method: as §3, §4, §5, §6, §7

[6] = Oral bioavailability and PK parameters in Balb/c mice; settings: single oral dose 10 mg/kg; for Vz: volume of distribution
Method: as §3, §4, §5, §6, §7

CYP2C8 = CYP2C8 (Homo sapiens (Human), UniProt P10632); assay: CYP inhibition in human liver microsomes; settings: read-out: CYP-2C8, metabolite desethylamodiaquine
Method: as §1

[7] = intrinsic clearance, human liver microsomes
[8] = 1 μM compound, 0.5 mg/mL human liver microsomes
[9] = intrinsic clearance, mouse liver microsomes
[10] = 1 μM compound, 0.5 mg/mL mouse liver microsomes
[11] = pH 7.4, intrinsic clearance, rat liver microsomes
[12] = rat, rat liver microsomes, pH 7.4, read-out: T1/2 @ rLM
[13] = 1 μM compound, 0.5 mg/mL rat liver microsomes
[14] = aqueous buffer, kinetic from dmso stock
[15] = read-out: CYP-3A4, human liver microsomes, probe substrate midazolam
[16] = read-out: CYP-2B6, human liver microsomes, probe substrate bupropion
[17] = read-out: CYP-2C9, human liver microsomes, probe substrate diclofenac
[18] = read-out: CYP-2C19, human liver microsomes, probe substrate mephenytoin
[19] = read-out: CYP-2D6, human liver microsomes, probe substrate dextromethorphan
[20] = read-out: CYP-1A2, human liver microsomes, probe substrate phenacetin
[21] = Homo sapiens, U2OS, dose-response 30 μM to 1 nM, thapsigargin-induced ER stress, U2-OS ATF6 luc reporter cells, read-out: IC50 ATF6-Luc reporter
[22] = Homo sapiens, U2OS, 1 μM test compound, thapsigargin-induced ER stress, U2-OS ATF6 luc reporter cells, 8 hr

Sequence of CYP3A4 (P08684 whole entry, canonical isoform): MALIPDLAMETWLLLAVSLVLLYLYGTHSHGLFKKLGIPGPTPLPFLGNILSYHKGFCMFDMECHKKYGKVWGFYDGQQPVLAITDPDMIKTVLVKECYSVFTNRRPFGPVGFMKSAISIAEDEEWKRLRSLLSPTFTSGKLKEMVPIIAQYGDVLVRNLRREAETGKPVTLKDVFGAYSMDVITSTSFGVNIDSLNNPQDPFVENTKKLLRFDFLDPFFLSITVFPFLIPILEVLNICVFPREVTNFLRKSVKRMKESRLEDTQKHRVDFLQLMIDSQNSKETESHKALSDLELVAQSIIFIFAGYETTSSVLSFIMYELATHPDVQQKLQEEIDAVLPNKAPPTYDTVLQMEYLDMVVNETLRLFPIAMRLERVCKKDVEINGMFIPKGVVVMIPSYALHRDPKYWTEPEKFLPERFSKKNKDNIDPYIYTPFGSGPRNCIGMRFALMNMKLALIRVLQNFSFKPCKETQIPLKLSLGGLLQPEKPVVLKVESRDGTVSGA
Sequence of CYP2B6 (P20813 whole entry): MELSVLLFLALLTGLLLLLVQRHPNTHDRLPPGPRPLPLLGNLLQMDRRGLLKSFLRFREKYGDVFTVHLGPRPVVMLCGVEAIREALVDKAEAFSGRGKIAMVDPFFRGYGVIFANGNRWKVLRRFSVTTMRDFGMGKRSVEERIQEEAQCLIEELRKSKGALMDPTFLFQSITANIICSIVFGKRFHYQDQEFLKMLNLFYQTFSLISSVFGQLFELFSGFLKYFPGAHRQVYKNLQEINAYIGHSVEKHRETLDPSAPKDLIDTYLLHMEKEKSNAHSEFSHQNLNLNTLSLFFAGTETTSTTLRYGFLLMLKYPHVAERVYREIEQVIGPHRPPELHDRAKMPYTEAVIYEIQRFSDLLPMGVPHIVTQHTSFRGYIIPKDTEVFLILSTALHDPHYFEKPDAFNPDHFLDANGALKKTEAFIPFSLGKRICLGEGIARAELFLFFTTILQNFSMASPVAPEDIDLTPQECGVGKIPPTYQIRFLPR
Sequence of CYP1A2 (P05177 whole entry): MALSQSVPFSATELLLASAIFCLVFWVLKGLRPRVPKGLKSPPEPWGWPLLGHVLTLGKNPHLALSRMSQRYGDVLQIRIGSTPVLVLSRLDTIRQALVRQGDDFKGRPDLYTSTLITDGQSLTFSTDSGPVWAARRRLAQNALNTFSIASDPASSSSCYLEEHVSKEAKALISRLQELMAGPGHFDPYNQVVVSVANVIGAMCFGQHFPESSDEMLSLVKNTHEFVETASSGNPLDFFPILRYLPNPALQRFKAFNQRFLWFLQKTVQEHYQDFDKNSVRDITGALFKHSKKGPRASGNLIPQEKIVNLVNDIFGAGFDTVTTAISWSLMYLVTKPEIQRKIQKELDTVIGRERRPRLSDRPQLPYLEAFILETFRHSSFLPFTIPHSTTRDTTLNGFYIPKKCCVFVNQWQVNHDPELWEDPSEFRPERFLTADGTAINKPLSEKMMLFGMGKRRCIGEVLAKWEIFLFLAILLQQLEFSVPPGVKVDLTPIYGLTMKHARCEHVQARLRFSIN
Sequence of CYP2C19 (P33261 whole entry): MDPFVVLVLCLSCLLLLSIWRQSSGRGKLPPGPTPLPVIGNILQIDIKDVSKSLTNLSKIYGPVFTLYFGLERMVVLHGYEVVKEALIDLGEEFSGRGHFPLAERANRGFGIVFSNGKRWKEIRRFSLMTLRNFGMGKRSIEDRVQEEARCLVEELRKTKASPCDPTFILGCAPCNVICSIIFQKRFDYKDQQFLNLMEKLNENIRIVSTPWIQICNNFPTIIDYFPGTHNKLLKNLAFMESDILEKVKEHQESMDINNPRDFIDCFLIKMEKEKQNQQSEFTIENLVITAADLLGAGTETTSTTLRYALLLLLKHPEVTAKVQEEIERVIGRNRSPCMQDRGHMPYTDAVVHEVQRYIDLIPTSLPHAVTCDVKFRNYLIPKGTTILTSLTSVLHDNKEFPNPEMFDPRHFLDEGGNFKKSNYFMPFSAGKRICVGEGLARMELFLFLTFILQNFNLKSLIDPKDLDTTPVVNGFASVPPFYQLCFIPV
Sequence of CYP2D6 (P10635 whole entry): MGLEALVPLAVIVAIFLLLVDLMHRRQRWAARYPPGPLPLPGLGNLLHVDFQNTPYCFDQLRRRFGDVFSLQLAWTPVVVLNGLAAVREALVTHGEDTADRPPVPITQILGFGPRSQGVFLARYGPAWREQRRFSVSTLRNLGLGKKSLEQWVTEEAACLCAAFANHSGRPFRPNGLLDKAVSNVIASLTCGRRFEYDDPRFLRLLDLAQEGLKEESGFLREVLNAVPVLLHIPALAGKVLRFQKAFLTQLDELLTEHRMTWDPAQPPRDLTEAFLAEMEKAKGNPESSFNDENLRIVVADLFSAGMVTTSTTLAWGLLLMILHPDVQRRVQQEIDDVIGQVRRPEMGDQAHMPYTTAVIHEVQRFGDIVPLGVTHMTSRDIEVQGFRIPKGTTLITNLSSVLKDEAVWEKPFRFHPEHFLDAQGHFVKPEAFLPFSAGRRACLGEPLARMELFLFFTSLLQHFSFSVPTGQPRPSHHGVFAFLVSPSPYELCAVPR
Sequence of CYP2C9 (P11712 whole entry): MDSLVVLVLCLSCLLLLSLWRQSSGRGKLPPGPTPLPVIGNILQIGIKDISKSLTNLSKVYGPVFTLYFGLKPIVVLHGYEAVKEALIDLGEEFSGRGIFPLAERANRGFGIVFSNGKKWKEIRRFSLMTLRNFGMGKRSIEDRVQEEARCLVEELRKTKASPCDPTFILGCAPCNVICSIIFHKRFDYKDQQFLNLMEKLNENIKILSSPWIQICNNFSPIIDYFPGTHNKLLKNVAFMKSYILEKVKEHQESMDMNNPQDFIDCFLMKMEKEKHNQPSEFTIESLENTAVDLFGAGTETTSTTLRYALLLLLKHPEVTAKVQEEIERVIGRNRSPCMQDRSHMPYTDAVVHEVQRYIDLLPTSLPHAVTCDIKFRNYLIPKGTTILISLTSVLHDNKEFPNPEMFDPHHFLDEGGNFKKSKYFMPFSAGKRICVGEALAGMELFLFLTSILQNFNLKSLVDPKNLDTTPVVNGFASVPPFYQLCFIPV
Sequence of CYP2C8 (P10632 whole entry): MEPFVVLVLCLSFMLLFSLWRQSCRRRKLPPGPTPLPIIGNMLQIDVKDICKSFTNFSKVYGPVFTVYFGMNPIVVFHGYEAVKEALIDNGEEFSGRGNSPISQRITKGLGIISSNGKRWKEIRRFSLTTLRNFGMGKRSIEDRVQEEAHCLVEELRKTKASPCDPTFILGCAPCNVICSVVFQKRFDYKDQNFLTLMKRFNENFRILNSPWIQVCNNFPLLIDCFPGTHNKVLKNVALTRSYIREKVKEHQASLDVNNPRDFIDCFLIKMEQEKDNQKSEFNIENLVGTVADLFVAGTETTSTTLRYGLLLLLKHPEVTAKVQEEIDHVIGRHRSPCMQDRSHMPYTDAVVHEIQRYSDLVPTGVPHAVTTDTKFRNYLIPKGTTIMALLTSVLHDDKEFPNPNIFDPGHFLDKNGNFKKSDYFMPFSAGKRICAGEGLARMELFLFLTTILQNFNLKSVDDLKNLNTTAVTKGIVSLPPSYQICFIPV

CC(c1ccc(C(F)(F)F)cc1C(F)(F)F)n1cc(NC(=O)c2cc(-c3ccco3)on2)cn1 (single isomer, unassigned) [“Enantiomer A” of Example S6, N-(1-(1-(2,4-bis(trifluoromethyl)phenyl)ethyl)-1H-pyrazol-4-yl)-5-(furan-2-yl)isoxazole-3-carboxamide]
IC50 (CYP3A4): > 50 µM
IC50 (CYP2B6): 4.18 µM
IC50 (CYP2C9): 7.88 µM
IC50 (CYP2C19): 3.54 µM
IC50 (CYP2D6): 23.7 µM
IC50 (CYP1A2): 15.3 µM
half-life at 1 μM ([1]; human liver microsomes): 24 min
microsomal CLint at 1 μM [1, 7]: 57.8 µL/min/mg
Rem. @ hLM (%) [1, 8]: 41.8%
half-life at 1 μM ([2]; mouse liver microsomes): 5.97 min
microsomal CLint at 1 μM [2, 9]: 232 µL/min/mg
Rem. @ mLM (%) [2, 10]: 3.05%
microsomal CLint at 1 μM [3, 11]: 283 µL/min/mg
half-life at 1 μM [3, 12]: 4.89 min
Rem. @ rLM (%) [3, 13]: 1.4%
AUCExtr [%] [4]: 1.73%
F [%] [4]: 9.6%
Last time point for AUClast [4]: 8 h
IC50 (ATF6): < 1000 nM
Inh. ATF6-Luc @ 1 μM [%] (ATF6; 8 h, 1 µM): +++ (+++ refers to >50% inhibition at 1 μM test compound)
solubility kinetic at 1 h [5, 14]: 27 µM (≈ 13.1 µg/mL)
AUC(0-inf) (in vivo): 626 ng·h/mL
AUC(0-t) (in vivo): 615 ng·h/mL
Cmax (in vivo): 579 ng/mL
Tmax (in vivo): 30 min
half-life (in vivo): 96 min

CC(c1ccc(C(F)(F)F)cc1C(F)(F)F)n1cc(NC(=O)c2cc(-c3ccccn3)on2)cn1 (single isomer, unassigned) [“Enantiomer A” of Example S5, N-(1-(1-(2,4-bis(trifluoromethyl)phenyl)ethyl)-1H-pyrazol-4-yl)-5-(pyridin-2-yl)isoxazole-3-carboxamide]
IC50 (CYP3A4): > 50 µM
IC50 (CYP2B6): 2.49 µM
IC50 (CYP2C9): 3.07 µM
IC50 (CYP2C19): 2.31 µM
IC50 (CYP2D6): 2.3 µM
IC50 (CYP1A2): > 50 µM
half-life at 1 μM ([1]; human liver microsomes): 99.8 min
microsomal CLint at 1 μM [1, 7]: 13.9 µL/min/mg
Rem. @ hLM (%) [1, 8]: 81.9%
half-life at 1 μM ([2]; mouse liver microsomes): 34.9 min
microsomal CLint at 1 μM [2, 9]: 39.7 µL/min/mg
Rem. @ mLM (%) [2, 10]: 53.8%
microsomal CLint at 1 μM [3, 11]: 11.5 µL/min/mg
half-life at 1 μM [3, 12]: 121 min
Rem. @ rLM (%) [3, 13]: 80%
AUCExtr [%] [4]: 43%
F [%] [4]: 66.3%
Last time point for AUClast [4]: 8 h
IC50 (ATF6): < 1000 nM
Inh. ATF6-Luc @ 1 μM [%] (ATF6; 8 h, 1 µM): +++ (+++ refers to >50% inhibition at 1 μM test compound)
Vz [6]: 3.07 L/kg
solubility kinetic at 1 h [5, 14]: 4.68 µM (≈ 2.32 µg/mL)
AUC(0-inf) (in vivo): 32400 ng·h/mL
AUC(0-t) (in vivo): 18500 ng·h/mL
Cmax (in vivo): 4590 ng/mL
Tmax (in vivo): 60 min
half-life (in vivo): 413 min

O=C(Nc1cnn(Cc2ccc(C(F)(F)F)cc2C(F)(F)F)c1)c1cc(-c2ccco2)on1 [Ceapin-A7, reference compound]
IC50 (CYP3A4; [15]): > 50 µM
IC50 (CYP2B6; microsomes): 7.48 µM
IC50 (CYP2C9; microsomes): > 45.3 µM
IC50 (CYP2D6; microsomes): > 50 µM
IC50 (CYP1A2; microsomes): > 50 µM
T1/2 @ hLM ([1]; half-life, 1 μM compound, 0.5 mg/mL human liver microsomes): 21.6 min
Clint @ hLM [1, 7]: 64.2 µL/min/mg
Rem. @ hLM (%) [1, 8]: 35.4%
T1/2 @ mLM ([2]; half-life, 1 μM compound, 0.5 mg/mL mouse liver microsomes): 9.84 min
Clint @ mLM [2, 9]: 141 µL/min/mg
Rem. @ mLM (%) [2, 10]: 12%
T1/2 @ rLM ([3]; half-life, 1 μM compound, 0.5 mg/mL rat liver microsomes): 11.4 min
Clint @ rLM ([3]; intrinsic clearance, rat liver microsomes): 121 µL/min/mg
Rem. @ rLM (%) [3, 13]: 14.5%
Inh. ATF6-Luc @ 1 μM [%] (ATF6; 1 μM test compound, thapsigargin-induced ER stress, U2-OS ATF6 luc reporter cells, 8 hr): +++ (+++ refers to >50% inhibition at 1 μM test compound)
IC50 (ATF6; dose-response 30 μM to 1 nM, thapsigargin-induced ER stress, U2-OS ATF6 luc reporter cells, read-out: IC50 ATF6-Luc reporter): < 1000 nM
F [%] ([6]; Bioavailability): 1.04%
Last time point for AUClast [6]: 6 h
CL ([6]; clearance): 231 L/h/kg
t1/2 ([6]; half-life): 2.49 h
AUCinf ([6]; plasma): 43.3 ng·h/mL
AUClast ([6]; plasma): 39.1 ng·h/mL
Cmax ([6]; plasma): 68.7 ng/mL
Tmax ([6]; plasma): 15 min
AUCExtr [%] ([6]; plasma, extrapolated AUC): 9.56%
Vz [6]: 831 L/kg
solubility kinetic at 1 h [5]: 27.7 µM (≈ 13 µg/mL)

CC(c1ccc(C(F)(F)F)cc1C(F)(F)F)n1cc(NC(=O)c2cnc(-c3ccccn3)s2)cn1 (stereo not drawn) [Compound 78, N-(1-(1-(2,4-bis(trifluoromethyl)phenyl)ethyl)-1H-pyrazol-4-yl)-2-(pyridin-2-yl)thiazole-5-carboxamide]
IC50 (CYP3A4; [15]): > 50 µM
IC50 (CYP2B6; [16]): 4.97 µM
IC50 (CYP2C9; [17]): 5.48 µM
IC50 (CYP2C19; [18]): 5.27 µM
IC50 (CYP2D6; [19]): 2.78 µM
IC50 (CYP1A2; [20]): 22.4 µM
IC50 (CYP2C8): 1800 nM
half-life at […], 1 µM ([1]; human liver microsomes): 95.6 min
microsomal CLint at […], 1 µM [1, 7]: 14.5 µL/min/mg
Rem. @ hLM (%) [1, 8]: 80.4%
half-life at […], 1 µM ([2]; mouse liver microsomes): 78.7 min
microsomal CLint at […], 1 µM [2, 9]: 17.6 µL/min/mg
Rem. @ mLM (%) [2, 10]: 76.8%
microsomal CLint at […], 1 µM [3, 11]: 22.3 µL/min/mg
half-life at […], 1 µM [3, 12]: 62.2 min
Rem. @ rLM (%) [3, 13]: 71.6%
IC50 (ATF6; [21]): 1000 to 10000 nM
inhibition at 1 µM (ATF6; [22]): < 25%

CC(c1ccc(C(F)(F)F)cc1C(F)(F)F)n1cc(NC(=O)c2nnc(-c3cnccn3)s2)cn1 (stereo not drawn) [Compound 136, N-(1-(1-(2,4-bis(trifluoromethyl)phenyl)ethyl)-1H-pyrazol-4-yl)-5-(pyrazin-2-yl)-1,3,4-thiadiazole-2-carboxamide]
IC50 (CYP3A4; [15]): > 50 µM
IC50 (CYP2B6; [16]): > 50 µM
IC50 (CYP2C9; [17]): > 50 µM
IC50 (CYP2C19; [18]): > 50 µM
IC50 (CYP2D6; [19]): > 50 µM
IC50 (CYP1A2; [20]): > 50 µM
IC50 (CYP2C8): > 50000 nM
half-life at […], 1 µM ([1]; human liver microsomes): 93.9 min
microsomal CLint at […], 1 µM [1, 7]: 15 µL/min/mg
Rem. @ hLM (%) [1, 8]: 77.8%
half-life at […], 1 µM ([2]; mouse liver microsomes): 106 min
microsomal CLint at […], 1 µM [2, 9]: 13 µL/min/mg
Rem. @ mLM (%) [2, 10]: 78.7%
microsomal CLint at […], 1 µM [3, 11]: 44 µL/min/mg
half-life at 1 μM [3, 12]: 31.7 min
Rem. @ rLM (%) [3, 13]: 43.9%
IC50 (ATF6; [21]): < 1000 nM
inhibition at 1 µM (ATF6; [22]): > 50%
solubility kinetic at 1 h [5, 14]: 2.34 µM (≈ 1.2 µg/mL)
